In general, IC50 refers to the concentration that inhibits the measured activity by half. A higher IC50 goes with weaker potency in that assay. As a reminder, the inhibition is the drop in the measured response relative to a control, in per cent.

This is an account of results in article PMC11270571 (ACS Omega, 2024).

Entries after “also recorded” stand apart in the source; their conditions may differ.

For one data set, the target named is human BuChE (Homo sapiens, UniProt P06276). Kind of data set: biochemical. The following applies: for inhibition at 100 µM / inhibition at 1000 µM: read-out: human BuChE inhibition%.
A further data set concerns the target human AChE (Homo sapiens, UniProt P22303). Kind of data set: AChE inhibition, modified Ellman spectrophotometric method. Format: biochemical. Particulars: for inhibition at 100 µM / inhibition at 1000 µM / inhibition at 0.001 µM / inhibition at 0.01 µM / inhibition at 0.1 µM / inhibition at 1 µM / inhibition at 10 µM: read-out: human AChE inhibition %. On the technique in general: DTNB colorimetry detects thiols as they appear.

A short description of data set [1]: In vitro BBB permeability assay. Format: in vitro ADME. Particulars: PAMPA; for type of BBB permeation: class by Pe.

human AChE, sequence (P22303 32-614): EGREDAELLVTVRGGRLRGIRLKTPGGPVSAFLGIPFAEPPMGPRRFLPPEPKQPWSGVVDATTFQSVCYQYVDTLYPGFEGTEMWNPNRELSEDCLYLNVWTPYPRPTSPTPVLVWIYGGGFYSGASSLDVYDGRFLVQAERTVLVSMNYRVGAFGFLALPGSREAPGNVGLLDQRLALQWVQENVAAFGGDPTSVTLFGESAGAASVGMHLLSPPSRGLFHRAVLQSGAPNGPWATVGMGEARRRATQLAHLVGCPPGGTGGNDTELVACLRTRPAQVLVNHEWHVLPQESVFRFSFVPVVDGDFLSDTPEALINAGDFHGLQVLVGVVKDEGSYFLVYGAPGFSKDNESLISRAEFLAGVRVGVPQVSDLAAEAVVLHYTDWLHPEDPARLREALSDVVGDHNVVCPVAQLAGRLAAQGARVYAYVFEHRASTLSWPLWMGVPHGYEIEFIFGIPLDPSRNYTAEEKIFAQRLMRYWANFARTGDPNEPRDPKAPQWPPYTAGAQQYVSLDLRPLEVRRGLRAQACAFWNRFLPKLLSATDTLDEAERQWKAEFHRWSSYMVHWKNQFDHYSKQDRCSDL
human BuChE, sequence (P06276 29-602): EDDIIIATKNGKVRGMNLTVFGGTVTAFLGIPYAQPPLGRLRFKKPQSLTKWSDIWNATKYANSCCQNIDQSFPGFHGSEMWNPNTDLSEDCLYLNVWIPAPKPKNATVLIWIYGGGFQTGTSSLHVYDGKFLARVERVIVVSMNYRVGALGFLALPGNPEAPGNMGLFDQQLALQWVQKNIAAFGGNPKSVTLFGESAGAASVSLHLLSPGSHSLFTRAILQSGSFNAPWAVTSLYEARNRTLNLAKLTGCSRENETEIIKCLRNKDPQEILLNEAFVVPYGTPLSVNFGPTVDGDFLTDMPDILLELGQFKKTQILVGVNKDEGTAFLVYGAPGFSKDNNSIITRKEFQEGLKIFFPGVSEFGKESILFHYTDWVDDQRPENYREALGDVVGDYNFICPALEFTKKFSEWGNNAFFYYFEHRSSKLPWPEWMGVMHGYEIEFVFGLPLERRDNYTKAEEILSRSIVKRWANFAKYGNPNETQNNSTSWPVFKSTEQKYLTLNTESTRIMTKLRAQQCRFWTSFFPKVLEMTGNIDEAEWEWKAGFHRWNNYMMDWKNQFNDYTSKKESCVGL

Consider `COc1ccc(N2N=C(c3ccsc3)CC2c2ccc(N3CCOCC3)cc2)cc1` (centres unmarked) [Compound 2d, 1-(4-Methoxyphenyl)-3-(thiophen-3-yl)-5-[4-(4-morpholinyl)phenyl]-2-pyrazoline], for which, on human BuChE, the IC50 was > 1000 µM, the inhibition at 100 µM was 21.1 ± 0.86% and the inhibition at 1000 µM came to 33.1 ± 0.99%. At human AChE, the IC50 is > 100 µM, the inhibition at 100 µM is 44.2 ± 1.24% and the inhibition at 1000 µM is 84.5 ± 2.36%.

As to `N#Cc1ccc(N2N=C(c3ccsc3)CC2c2ccc(N3CCOCC3)cc2)cc1` (centres unmarked) [Compound 2e, 1-(4-Cyanophenyl)-3-(thiophen-3-yl)-5-[4-(4-morpholinyl)phenyl]-2-pyrazoline], at human BuChE, the IC50 is > 1000 µM, the inhibition at 100 µM came out at 23.4 ± 1.06% and the inhibition at 1000 µM was 38.9 ± 1.22%. Moreover, on human AChE, the concentration for half-maximal inhibition (IC50) was > 100 µM, the inhibition at 100 µM came out at 47.6 ± 1.85% and the inhibition at 1000 µM turned out to be 81.2 ± 1.91%.

As to `Cc1ccc(N2N=C(c3ccsc3)CC2c2ccc(N3CCOCC3)cc2)cc1` (centres unmarked) [Compound 2c, 1-(4-Methylphenyl)-3-(thiophen-3-yl)-5-[4-(4-morpholinyl)phenyl]-2-pyrazoline], at human BuChE, the half-maximal inhibitory concentration (IC50) is > 1000 µM, the inhibition at 100 µM is 20.6 ± 0.82% and the inhibition at 1000 µM worked out at 29.3 ± 0.99%. For the same compound, at human AChE, the IC50 is > 100 µM, the inhibition at 100 µM was 38.7 ± 1.34% and the inhibition at 1000 µM is 73.6 ± 2.06%.

`O=[N+]([O-])c1cccc(N2N=C(c3ccsc3)CC2c2ccc(N3CCOCC3)cc2)c1` (centres unmarked) [Compound 2l, 1-(3-Nitrophenyl)-3-(thiophen-3-yl)-5-[4-(4-morpholinyl)phenyl]-2-pyrazoline]: in data set [1], the “BBB permeability (in words)” value is recorded as “high blood–brain barrier permeability; also recorded: high BBB permeability” and the “type of BBB permeation” value was “CNS+ high BBB permeation (high BBB permeation Pe (10^–6 cm s^–1) > 4.0)”. Besides, at human BuChE, the IC50 was > 1000 µM, the inhibition at 100 µM was 19.3 ± 0.82% and the inhibition at 1000 µM stood at 30.5 ± 0.97%. Besides, at human AChE, the IC50 turned out to be 0.04 ± 0.0019 µM, the inhibition at 0.001 µM was 19.3 ± 0.75%, the inhibition at 0.01 µM is 42.2 ± 1.52% and the inhibition at 0.1 µM worked out at 64.6 ± 1.85%. Besides, at human AChE, the inhibition at 1 µM worked out at 75.4 ± 1.03%, the inhibition at 10 µM is 82.6 ± 1.51%, the inhibition at 100 µM amounted to 91.7 ± 1.92% and the inhibition at 1000 µM was 95.3 ± 2.03%.

In the case of `Brc1ccc(N2N=C(c3ccsc3)CC2c2ccc(N3CCOCC3)cc2)cc1` (centres unmarked) [Compound 2h, 1-(4-Bromophenyl)-3-(thiophen-3-yl)-5-[4-(4-morpholinyl)phenyl]-2-pyrazoline], on human BuChE, the IC50 is > 1000 µM, the inhibition at 100 µM amounted to 26.2 ± 1.25% and the inhibition at 1000 µM is 40.8 ± 1.94%. At human AChE, the IC50 is > 1000 µM, the inhibition at 100 µM turned out to be 20.9 ± 0.83% and the inhibition at 1000 µM was found to be 46.5 ± 1.94%.

Regarding `O=C(C=Cc1ccc(N2CCOCC2)cc1)c1ccsc1` [Compound 1, 3-(4-Morpholinophenyl)-1-(thiophen-3-yl)prop-2-en-1-one], on human BuChE, the IC50 is > 1000 µM, the inhibition at 100 µM was found to be 21.3 ± 0.84% and the inhibition at 1000 µM worked out at 46.6 ± 0.92%. On human AChE, the IC50 was > 100 µM, the inhibition at 100 µM worked out at 41.1 ± 1.87% and the inhibition at 1000 µM worked out at 78.3 ± 2.1%.

Take `Clc1ccc(N2N=C(c3ccsc3)CC2c2ccc(N3CCOCC3)cc2)cc1` (centres unmarked) [Compound 2g, 1-(4-Chlorophenyl)-3-(thiophen-3-yl)-5-[4-(4-morpholinyl)phenyl]-2-pyrazoline]: the “type of BBB permeation” value in data set [1] is on record as “CNS ± uncertain BBB permeation”. Moreover, on human BuChE, the IC50 is > 1000 µM, the inhibition at 100 µM worked out at 20.8 ± 0.93% and the inhibition at 1000 µM turned out to be 25 ± 0.96%. Moreover, on human AChE, the concentration for half-maximal inhibition (IC50) came out at 0.122 ± 0.0051 µM, the inhibition at 0.001 µM was 15.6 ± 0.73%, the inhibition at 0.01 µM was found to be 23.1 ± 1.06% and the inhibition at 0.1 µM turned out to be 47.9 ± 0.96%. On human AChE, the inhibition at 1 µM turned out to be 79.5 ± 1.57%, the inhibition at 10 µM stood at 82.4 ± 2.17%, the inhibition at 100 µM was 86.6 ± 2.56% and the inhibition at 1000 µM is 90.7 ± 1.15%.

For the compound `CS(=O)(=O)c1ccc(N2N=C(c3ccsc3)CC2c2ccc(N3CCOCC3)cc2)cc1` (centres unmarked) [Compound 2b, 1-(4-Methylsulfonylphenyl)-3-(thiophen-3-yl)-5-[4-(4-morpholinyl)phenyl]-2-pyrazoline], on human BuChE, the IC50 is > 1000 µM, the inhibition at 100 µM was found to be 15.1 ± 0.78% and the inhibition at 1000 µM is 26.4 ± 0.75%. Also, at human AChE, the half-inhibitory concentration (IC50) is > 1000 µM, the inhibition at 100 µM came to 23.1 ± 0.95% and the inhibition at 1000 µM was found to be 40.6 ± 1.76%.

On to `Brc1cccc(N2N=C(c3ccsc3)CC2c2ccc(N3CCOCC3)cc2)c1` (centres unmarked) [Compound 2k, 1-(3-Bromophenyl)-3-(thiophen-3-yl)-5-[4-(4-morpholinyl)phenyl]-2-pyrazoline], for which, at human BuChE, the IC50 was > 1000 µM, the inhibition at 100 µM was 17.6 ± 0.81% and the inhibition at 1000 µM was 29 ± 1.09%. At human AChE, the IC50 was > 1000 µM, the inhibition at 100 µM amounted to 30.3 ± 1.03% and the inhibition at 1000 µM is 45.8 ± 1.72%.

Take `Fc1ccc(N2N=C(c3ccsc3)CC2c2ccc(N3CCOCC3)cc2)cc1` (centres unmarked) [Compound 2f, 1-(4-Fluorophenyl)-3-(thiophen-3-yl)-5-[4-(4-morpholinyl)phenyl]-2-pyrazoline]: on human BuChE, the IC50 was > 1000 µM, the inhibition at 100 µM was determined as 21.9 ± 0.89% and the inhibition at 1000 µM came out at 31.5 ± 1.15%. For the same compound, at human AChE, the IC50 is > 100 µM, the inhibition at 100 µM was 45.4 ± 1.99% and the inhibition at 1000 µM turned out to be 71.4 ± 2.46%.

In the case of `Clc1cccc(N2N=C(c3ccsc3)CC2c2ccc(N3CCOCC3)cc2)c1` (centres unmarked) [Compound 2j, 1-(3-Chlorophenyl)-3-(thiophen-3-yl)-5-[4-(4-morpholinyl)phenyl]-2-pyrazoline], in data set [1], the “type of BBB permeation” value is “CNS ± uncertain BBB permeation”. Also, on human BuChE, the 50% inhibitory concentration (IC50) is > 1000 µM, the inhibition at 100 µM was 24.9 ± 0.97% and the inhibition at 1000 µM was 34.3 ± 1.55%. Also, at human AChE, the IC50 is 0.062 ± 0.003 µM, the inhibition at 0.001 µM is 19 ± 0.63%, the inhibition at 0.01 µM came to 36.2 ± 0.98% and the inhibition at 0.1 µM is 60.8 ± 1.64%. Besides, at human AChE, the inhibition at 1 µM stood at 72 ± 1.78%, the inhibition at 10 µM was 80.2 ± 2.16%, the inhibition at 100 µM stood at 89.5 ± 1.85% and the inhibition at 1000 µM is 93.1 ± 2.85%.

Turning to `c1ccc(N2N=C(c3ccsc3)CC2c2ccc(N3CCOCC3)cc2)cc1` (centres unmarked) [Compound 2a, 1-Phenyl-3-(thiophen-3-yl)-5-[4-(4-morpholinyl)phenyl]-2-pyrazoline], in data set [1], the “BBB permeability (in words)” value was “high BBB permeability” and the “type of BBB permeation” value was “CNS+ high BBB permeation (high BBB permeation Pe (10^–6 cm s^–1) > 4.0)”. At human BuChE, the IC50 was > 1000 µM, the inhibition at 100 µM was 18.1 ± 0.76% and the inhibition at 1000 µM came out at 31.1 ± 0.84%. Also, on human AChE, half-maximal inhibition (IC50) required 0.107 ± 0.0048 µM, the inhibition at 0.001 µM was determined as 14.7 ± 0.66%, the inhibition at 0.01 µM stood at 20.3 ± 0.99% and the inhibition at 0.1 µM was found to be 49.7 ± 1.74%. Further, on human AChE, the inhibition at 1 µM was 82.5 ± 1.91%, the inhibition at 10 µM stood at 84.8 ± 1.8%, the inhibition at 100 µM is 88.6 ± 2.06% and the inhibition at 1000 µM came to 91.4 ± 2.46%.

For the compound `Fc1cccc(N2N=C(c3ccsc3)CC2c2ccc(N3CCOCC3)cc2)c1` (centres unmarked) [Compound 2i, 1-(3-Fluorophenyl)-3-(thiophen-3-yl)-5-[4-(4-morpholinyl)phenyl]-2-pyrazoline], on human BuChE, the IC50 was > 1000 µM, the inhibition at 100 µM amounted to 27.4 ± 1.38% and the inhibition at 1000 µM was 36.2 ± 1.42%. In addition, at human AChE, the half-maximal inhibitory concentration (IC50) was > 100 µM, the inhibition at 100 µM turned out to be 37.6 ± 1.51% and the inhibition at 1000 µM was determined as 68.3 ± 2.15%.
